Reference: patent US9012152B2, “Anti-bacterial peptides and methods of treating diseases using same” (Yissum Research Development Company of the Hebrew …, priority 2007, dated 2015)

Key:
Type in all cases: cell-based
[1] = tested on: E. coli MC4100relA^+; assay: E. coli mazEF-mediated cell death in the presence of synthesized wild type and mutated EDF; conditions: 1 μg/ml of peptide; rifampicin 10 μg/ml, 10 minutes; diluted culture 3×10^4
Description: (§1) E. coli mazEF-mediated cell death in the presence of synthesized wild type (WT) and mutated EDF. E. coli MC4100relA^+t(WT) and MC4100relA^+ΔmazEF (ΔmazEF) were grown for 12 hours in M9 medium with shaking (160 rpm). Then, cells were diluted 1:100 in M9 medium and were grown with shaking (160 rpm) at 37° C. to a mid-logarithmic phase (OD600=0.6). Duplicate samples were removed from the cultures at a density of 2.5×10^8 (Dense), diluted in pre-heated M9 medium to the density of 3×10^4 (M9) or diluted in pre-heated M9 applied with 1 μg/ml of one of the synthesized EDFs (SEQ ID NOs: 1-6). The samples were incubated for 10 minutes at 37° C. without shaking. Then rifampicin (10 μg/ml) was added and the cells were incubated for 10 minutes without shaking. The cells were centrifuged in 14000 rpm for 5 minutes and washed in pre-heated saline. Then, the cells were diluted, plated on LB plates and incubated at 37° C. for 12 hours. Cell killing was calculated by comparing the number of the colony-forming ability of cells treated by stressful conditions to those of the cells that were not exposed to the treatment.

[2] = tested on: E. Coli MC41relA^+; assay: EDF activity of modified derivatives (size and external Asn residues); conditions: various concentrations added to diluted cultures; incubated with rifampicin
Description: The […] peptides analyzed include NNWNN (SEQ ID NO: 1); GNWNN (SEQ ID NO: 2); NGWNN (SEQ ID NO: 3); NNGNN (SEQ ID NO: 4); NNWGN (SEQ ID NO: 5); and NNWNG (SEQ ID NO: 6). […] Chemically synthesized EDF (SEQ ID NO: 1) or its modified derivatives were added at various concentrations to diluted cultures of E. Coli MC41relA^+. No EDF was added to a control culture. […] Samples were incubated with rifampicin as described in Example 1.
as §1, with “Duplicate samples were removed from the cultures at a density of 2.5×10^8 (Dense), diluted in pre-heated M9 medium to the density of 3×10^4 (M9) or diluted in pre-heated M9 applied with 1 μg/ml of one of the synthesized EDFs (SEQ ID NOs: 1-6).” left out

[3] = tested on: E. Coli NC4100relA^+; assay: Ability of mutant EDF molecules to inhibit wild type EDF activity; conditions: constant amount (50 ng/ml) of mutated EDF, various concentrations of WT EDF
Description: FIG. 15 is a graph illustrating the ability of mutant EDF molecules to inhibit wild type EDF activity. The […] peptides analyzed include NNWNN (SEQ ID NO: 1); GNWNN (SEQ ID NO: 2); NGWNN (SEQ ID NO: 3); NNGNN (SEQ ID NO: 4); NNWGN (SEQ ID NO: 5); and NNWNG (SEQ ID NO: 6).
Ability of mutant EDF molecules to inhibit wild type EDF activity: Various concentration of chemically synthesized WT EDF (SEQ ID NO: 1) were added to diluted cultures of E. Coli NC4100relA^+ containing a constant amount (50 ng/ml) of each of the mutated EDF described in Table 6. The Experiment was carried out as described herein above.

Substance | % Cell killing following mazEF induction with rifampicin [1] [%] | EDF activity [2] | inhibition of wild type EDF activity [3]
NNWGN: Mutated EDF pentapeptide, glycine in position 4 (Chemically synthesized mutant EDF derivative) | 72 |  | 
NNNWNNN (Chemically synthesized modified EDF derivative) [heptapeptide derivative of EDF] |  | partial activity | 
NNGNN: Mutated EDF pentapeptide, glycine in position 3 (Chemically synthesized mutant EDF derivative) | 41 |  | 
NGWNN: Mutated EDF pentapeptide, glycine in position 2 (Chemically synthesized mutant EDF derivative) | 51 |  | 
NNWNQ: EDF pentapeptide with Asn replaced by Gln at the last position (Chemically synthesized modified EDF derivative) |  | only a partial reduction in EDF activity | 
GNWNN: Mutated EDF pentapeptide, glycine in position 1 (Chemically synthesized mutant EDF derivative) | 9 |  | capable of antagonizing
NNWNG: Mutated EDF pentapeptide, glycine in position 5 (Chemically synthesized modified EDF derivative) | 19 |  | capable of antagonizing
QNWNN: EDF pentapeptide with Asn replaced by Gln at the first position (Chemically synthesized modified EDF derivative) |  | only a partial reduction in EDF activity | 
